Assay results taken from US20170087174A1, “COMBINATION THERAPY REGIMEN FOR TREATMENT OF HCV” (JANSSEN PHARMACEUTICALS, INC., priority 2015, published 2017).

What was measured:
1A2 = molecular target: T1, 1A2 (Homo sapiens, UniProt P05177); assay: CYP1A2 inhibition; type: in vitro ADME; conditions: up to 10 μM
T1 sequence (P05177 1-516): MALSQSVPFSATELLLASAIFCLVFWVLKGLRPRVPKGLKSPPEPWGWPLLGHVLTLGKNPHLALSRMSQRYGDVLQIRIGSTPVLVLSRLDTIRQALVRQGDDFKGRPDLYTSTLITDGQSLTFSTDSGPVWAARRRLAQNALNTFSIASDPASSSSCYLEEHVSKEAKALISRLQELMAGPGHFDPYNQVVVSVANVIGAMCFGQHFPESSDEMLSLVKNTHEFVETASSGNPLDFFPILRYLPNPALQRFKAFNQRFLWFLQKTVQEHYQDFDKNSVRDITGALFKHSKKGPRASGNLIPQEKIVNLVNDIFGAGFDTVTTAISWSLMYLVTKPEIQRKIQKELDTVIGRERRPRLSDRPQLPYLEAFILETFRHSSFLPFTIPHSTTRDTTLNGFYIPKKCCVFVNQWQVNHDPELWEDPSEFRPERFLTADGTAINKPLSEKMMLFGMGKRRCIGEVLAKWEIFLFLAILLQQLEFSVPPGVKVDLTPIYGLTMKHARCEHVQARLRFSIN

NTCP = molecular target: T2, NTCP (Homo sapiens, UniProt Q14973); conditions: in vitro; read-out: other OATPs NTCP inhibition IC50; cited from earlier work
T2 sequence (Q14973 1-349): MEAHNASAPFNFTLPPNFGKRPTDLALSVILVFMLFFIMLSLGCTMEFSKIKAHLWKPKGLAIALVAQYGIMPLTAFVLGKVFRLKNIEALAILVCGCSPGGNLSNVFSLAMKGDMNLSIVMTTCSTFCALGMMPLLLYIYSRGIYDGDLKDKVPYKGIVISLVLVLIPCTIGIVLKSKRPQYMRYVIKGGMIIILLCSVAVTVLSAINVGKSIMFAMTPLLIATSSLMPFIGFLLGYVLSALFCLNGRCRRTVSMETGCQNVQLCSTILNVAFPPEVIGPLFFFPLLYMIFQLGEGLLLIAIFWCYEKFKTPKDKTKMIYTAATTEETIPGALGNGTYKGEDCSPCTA

CYP3A4 = CYP3A4 induction; type: in vitro ADME; conditions: up to 10 μM

Row | inhibition of 1A2 (1A2) | SMILES | IC50 (NTCP) | induction of CYP3A4 (CYP3A4)
1 | no inhibition | COC(=O)N[C@H](C(=O)N1[C@H](c2nc3cc(-c4cc5ccc4CCc4ccc(c(-c6ccc7[nH]c([C@@H]8C[C@@H]9CCCC[C@@H]9N8C(=O)[C@@H](NC(=O)OC)C(C)C)nc7c6)c4)CC5)ccc3[nH]2)C[C@@H]2CCCC[C@@H]21)C(C)C [ODV, Odalasvir] | – | –
2 | – | COc1ccc2c(O[C@@H]3C[C@H]4C(=O)N[C@]5(C(=O)NS(=O)(=O)C6CC6)C[C@H]5/C=C\CCCCN(C)C(=O)[C@@H]4C3)cc(-c3nc(C(C)C)cs3)nc2c1C [SMV, Simeprevir, reference compound] | 2200 nM | no induction
